Experimental data from ChEMBL document CHEMBL1201862, “PubChem BioAssay data set” (2004).
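48-hour exposure; five concentrations; linearly interpolated endpoints. GI50: concentration for 50% inhibition of growth.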 The source made the active and inactive calls. No stated cut-off is given here; in the data, active = GI50 up to about 1.1 µM and inactive = higher.

What was measured:
Assay in all cases: growth of human tumour cells (NCI), 48 h
[1] = test system: SNB-75
[2] = test system: NCI-H226
[3] = test system: LXFL 529
[4] = test system: DLD-1
[5] = test system: EKVX
[6] = test system: Malme-3M
[7] = test system: A498
[8] = test system: SK-OV-3
[9] = test system: OVCAR-4
[10] = test system: M19-MEL
[11] = test system: CAKI-1
[12] = test system: KM-20L2
[13] = test system: HCT-116
[14] = test system: XF498
[15] = test system: HOP-92
[16] = test system: MCF7

Measured: GI50

NC(S)=Nc1cc(Cl)ccc1Cl
inactive: [1] 55.7 µM | [2] > 100 µM | [3] > 100 µM | [4] > 100 µM | [5] > 100 µM | [6] > 100 µM | [7] > 100 µM | [8] > 100 µM | [9] > 100 µM | [10] > 100 µM | [11] > 100 µM | [12] > 100 µM | [13] > 100 µM | [14] 94.6 µM | [15] 85.1 µM

CCOC(=O)[C@H]1Nc2c(cccc2[N+](=O)[O-])[C@H]2OCC[C@@H]12
inactive: [1] > 100 µM | [2] > 100 µM | [3] > 100 µM | [4] > 100 µM | [5] > 100 µM | [6] > 100 µM | [9] > 100 µM | [10] > 100 µM | [11] > 100 µM | [12] > 100 µM | [13] > 100 µM | [14] > 100 µM

CCOC(=O)NC(=O)c1cn(CCNCCO)c(=O)[nH]c1=O
inactive: [1] 3.36 µM | [2] > 100 µM | [3] > 100 µM | [4] > 100 µM | [5] > 100 µM | [6] > 100 µM | [8] > 100 µM | [9] > 100 µM | [10] > 100 µM | [11] > 100 µM | [13] > 100 µM | [14] > 100 µM | [15] > 100 µM

Cc1ccc(N(O)C(C)(C)C)cc1
inactive: [1] > 100 µM | [2] > 100 µM | [4] > 100 µM | [16] > 100 µM | [5] > 100 µM | [6] > 100 µM | [7] > 100 µM | [8] > 100 µM | [9] > 100 µM | [10] > 100 µM | [11] > 100 µM | [12] > 100 µM | [13] > 100 µM | [14] > 100 µM | [15] > 100 µM
